Values of other authors in patent US12048769B2, “Methods for administering weight loss medications” (priority 2006, dated 2024).

Tests used:
[1] = in vivo
[2] = in vivo; remark: listed apart in the source
[3] = system: patients presenting primary obesity; conditions: comparable to marketed weight loss medications
[4] = system: carbonic anhydrase

For `CNCCC(Oc1ccc(C(F)(F)F)cc1)c1ccccc1` (stereo not drawn) [Fluoxetine, N-methyl-3-phenyl-3-[4-(trifluoromethyl)phenoxy]-propan-1-amine], the bioavailability (in vivo) is given as “approximately 72%”, the “time to complete excretion” value (in vivo) is given as “several weeks” and the plasma protein binding (mostly albumin) is given as “highly bound”. The “elimination half-life in liver disease” value (those with liver disease) was “prolonged” and the physiological half life [1] was “about 24 hours”.

For `Cc1cc2c(s1)Nc1ccccc1N=C2N1CCN(C)CC1` [Olanzapine, 2-methyl-4-(4-methyl-1-piperazinyl)-10H-thieno[2,3-b][1,5]benzodiazepine], the “effect of food on bioavailability” value [2] is given as “not affected by food”, the first pass metabolism [2] is given as “extensive first pass metabolism” and the kinetics [2] is given as “linear kinetics”. The “time to steady state plasma concentrations” value [2] was “about a week”.

For `NS(=O)(=O)Cc1noc2ccccc12` [Zonisamide], the weight loss [3] is listed as “significant weight loss” and the “inhibitory effect on carbonic anhydrase” value [4] is listed as “weak inhibitory effect”.

In the case of `NCCC(Oc1ccc(C(F)(F)F)cc1)c1ccccc1` (stereo not drawn) [norfluoxetine], the elimination half-life (after long-term use, healthy adults) is listed as 16 days.
